Data reported in PubChem BioAssay (NCI).
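Compound exposure: 48 hours, 5 concentrations, 96-well plates. Abbreviation: GI50, concentration required for 50% inhibition of growth. TGI marks complete inhibition of growth.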

Assays:
Test in all cases: NCI tumour cell line growth inhibition, 48 h
[1] = test system: SK-MEL-2 melanoma
[2] = test system: OVCAR-5 ovarian
[3] = test system: OVCAR-8 ovarian
[4] = test system: NCI-H226 lung
[5] = test system: HCC-2998 colon
[6] = test system: SK-MEL-28 melanoma
[7] = test system: EKVX NSCLC
[8] = test system: CAKI-1 renal
[9] = test system: SF-539 CNS
[10] = test system: NCI-H23 lung
[11] = test system: HL-60(TB) leukemia
[12] = test system: SK-OV-3 ovarian
[13] = test system: SF-295 CNS
[14] = test system: OVCAR-4 ovarian
[15] = test system: OVCAR-3 ovarian
[16] = test system: COLO 205 colon
[17] = test system: SR leukemia
[18] = test system: A549 NSCLC
[19] = test system: SNB-19 CNS
[20] = test system: NCI-H522 lung
[21] = test system: KM12 colon
[22] = test system: LOX IMVI melanoma
[23] = test system: RXF 393 renal
[24] = test system: HT29 colon
[25] = test system: UACC-62 melanoma
[26] = test system: ACHN renal
[27] = test system: SN12C renal
[28] = test system: PC-3 prostate
[29] = test system: HCT-15 colon
[30] = test system: SK-MEL-5 melanoma
[31] = test system: IGROV1 ovarian
[32] = test system: RPMI-8226 leukemia
[33] = test system: CCRF-CEM leukemia
[34] = test system: HOP-62 NSCLC
[35] = test system: TK-10 renal
[36] = test system: HS 578T breast
[37] = test system: BT-549 breast
[38] = test system: 786-0 renal
[39] = test system: T-47D breast
[40] = test system: HOP-92 NSCLC
[41] = test system: DU-145 prostate
[42] = test system: M14 melanoma
[43] = test system: U251 CNS
[44] = test system: MDA-MB-435
[45] = test system: K-562 leukemia
[46] = test system: MDA-MB-231 breast
[47] = test system: HCT-116 colon
[48] = test system: UACC-257 melanoma
[49] = test system: MOLT-4 leukemia
[50] = test system: MALME-3M melanoma
[51] = test system: SF-268 CNS
[52] = test system: A498 renal
[53] = test system: SW-620 colon
[54] = test system: NCI/ADR-RES ovarian
[55] = test system: UO-31 renal
[56] = test system: NCI-H460 lung
[57] = test system: SNB-75 CNS
[58] = test system: MCF7 breast
[59] = test system: MDA-N

`O=C1COCCN1c1ccc(NCc2cn(Cc3ccc(F)cc3)c3ccccc23)cc1` was tested, and the GI50 [1] was 0.779 µM, the TGI [1] was 6.06 µM and the GI50 [2] was 0.0418 µM. For the same molecule, the TGI [2] was 0.231 µM, the GI50 [3] was 4.3 µM and the TGI [3] was greater than 86.8 µM. The GI50 [4] was 0.0593 µM, the TGI [4] was 0.275 µM and the GI50 [5] was 11.1 µM. It also gave a TGI [5] of 51.7 µM, a GI50 [6] of 15.4 µM and a TGI [6] of 77.9 µM. For the same molecule, the GI50 [7] was 10.8 µM, the TGI [7] was greater than 66.7 µM and the GI50 [8] was 0.0252 µM. It also gave a TGI [8] of 0.418 µM, a GI50 [9] of 7.36 µM and a TGI [9] of 33.1 µM. It also gave a GI50 [10] of 2.64 µM, a TGI [10] of 32.1 µM and a GI50 [11] of 4.8 µM. For the same molecule, the TGI [11] was 24.3 µM, the GI50 [12] was 1.65 µM and the TGI [12] was 8.14 µM. It also gave a GI50 [13] of 0.927 µM, a TGI [13] of 27.5 µM and a GI50 [14] of 0.173 µM. For the same molecule, the TGI [14] was 3 µM, the GI50 [15] was 0.313 µM and the TGI [15] was 2.96 µM. The GI50 [16] was 0.664 µM, the TGI [16] was 5.29 µM and the GI50 [17] was 3.84 µM. For the same molecule, the TGI [17] was greater than 100 µM, the GI50 [18] was 1.68 µM and the TGI [18] was greater than 100 µM. It also gave a GI50 [19] of 19.4 µM, a TGI [19] greater than 100 µM and a GI50 [20] of 2.75 µM. The TGI [20] was 17.8 µM, the GI50 [21] was 15 µM and the TGI [21] was greater than 75.9 µM. The GI50 [22] was 5.32 µM, the TGI [22] was 25.3 µM and the GI50 [23] was 0.911 µM. The TGI [23] was 5.76 µM, the GI50 [24] was 1.67 µM and the TGI [24] was greater than 100 µM. The GI50 [25] was 0.0978 µM, the TGI [25] was 0.617 µM and the GI50 [26] was 2.91 µM. The TGI [26] was 31.4 µM, the GI50 [27] was 4.08 µM and the TGI [27] was greater than 83.7 µM. For the same molecule, the GI50 [28] was 8.68 µM, the TGI [28] was 45.2 µM and the GI50 [29] was 4.13 µM. The TGI [29] was 31 µM, the GI50 [30] was 2.6 µM and the TGI [30] was 11.2 µM. It also gave a GI50 [31] of 0.0668 µM, a TGI [31] of 1.05 µM and a GI50 [32] of 0.662 µM. The TGI [32] was 8.8 µM, the GI50 [33] was 5.4 µM and the TGI [33] was greater than 96.4 µM. For the same molecule, the GI50 [34] was 0.783 µM, the TGI [34] was greater than 31.7 µM and the GI50 [35] was 0.0456 µM. The TGI [35] was 0.636 µM, the GI50 [36] was 3.41 µM and the TGI [36] was 44.1 µM. For the same molecule, the GI50 [37] was 3.47 µM, the TGI [37] was 22.4 µM and the GI50 [38] was 2.7 µM. It also gave a TGI [38] of 41 µM, a GI50 [39] of 0.0522 µM and a GI50 [40] of 1.74 µM. The TGI [40] was 11.8 µM, the GI50 [41] was 5.33 µM and the TGI [41] was greater than 69.1 µM. It also gave a GI50 [42] of 5.46 µM, a TGI [42] of 40.8 µM and a GI50 [43] of 0.645 µM. The TGI [43] was 38.5 µM, the GI50 [44] was 14.5 µM and the TGI [44] was 32.1 µM. It also gave a GI50 [45] of 1.25 µM, a TGI [45] greater than 51.3 µM and a GI50 [46] of 4.9 µM. For the same molecule, the TGI [46] was 27.5 µM, the GI50 [47] was 0.0618 µM and the TGI [47] was 14 µM. For the same molecule, the GI50 [48] was 0.204 µM, the TGI [48] was 0.844 µM and the GI50 [49] was 11.6 µM. The TGI [49] was greater than 68.9 µM, the GI50 [50] was 3.47 µM and the TGI [50] was 15.4 µM. For the same molecule, the GI50 [51] was 9.7 µM, the TGI [51] was 50.4 µM and the GI50 [52] was 0.0203 µM. It also gave a TGI [52] of 0.0821 µM, a GI50 [53] of 0.562 µM and a TGI [53] greater than 52.6 µM. For the same molecule, the GI50 [54] was 5.44 µM, the TGI [54] was 45.3 µM and the GI50 [55] was 2.42 µM. The TGI [55] was 18.2 µM, the GI50 [56] was 0.133 µM and the TGI [56] was 29.2 µM. It also gave a GI50 [57] of 2.03 µM, a TGI [57] of 13 µM and a GI50 [58] of 0.114 µM. It also gave a TGI [58] of 13 µM.

`C[C@H](N)C(=O)Nc1ccc(-c2nc3ccccc3s2)cc1Cl` gave a TGI [1] of 30.5 µM, a TGI [2] of 14.9 µM and a TGI [3] greater than 100 µM. It also gave a TGI [4] of 11.2 µM, a TGI [5] of 17.9 µM and a TGI [6] of 27.7 µM. For the same molecule, the TGI [7] was 26.7 µM, the TGI [8] was 23.2 µM and the TGI [10] was 39.2 µM. The TGI [12] was 32.7 µM, the TGI [13] was 33.9 µM and the TGI [15] was 19.2 µM. It also gave a TGI [16] of 26.4 µM, a TGI [17] of 13.9 µM and a TGI [18] of 27.6 µM. The TGI [19] was 30.4 µM, the TGI [20] was 46 µM and the TGI [21] was 33.6 µM. For the same molecule, the TGI [59] was 26.3 µM, the TGI [22] was greater than 100 µM and the TGI [23] was 30.2 µM. The TGI [24] was 32.8 µM, the TGI [25] was 31.1 µM and the TGI [26] was 29 µM. It also gave a TGI [27] of 30 µM, a TGI [28] of 27.3 µM and a TGI [29] of 62.4 µM. It also gave a TGI [30] of 29.9 µM, a TGI [31] greater than 100 µM and a TGI [33] of 29.3 µM. For the same molecule, the TGI [34] was 26 µM, the TGI [35] was 14.7 µM and the TGI [36] was 49.7 µM. For the same molecule, the TGI [37] was 36 µM, the TGI [38] was 25.7 µM and the TGI [40] was greater than 100 µM. For the same molecule, the TGI [41] was 32.1 µM, the TGI [42] was 19 µM and the TGI [43] was 29.1 µM. It also gave a TGI [44] of 28.7 µM, a TGI [45] of 36.8 µM and a TGI [47] of 24.5 µM. For the same molecule, the TGI [48] was 34.4 µM, the TGI [49] was 40 µM and the TGI [50] was 41.4 µM. The TGI [51] was 43.7 µM, the TGI [53] was 29.4 µM and the TGI [54] was greater than 100 µM. It also gave a TGI [55] of 22.9 µM, a TGI [56] of 26.2 µM and a TGI [57] of 34.8 µM.
